From publication PMC10233092, “Selective Janus kinase 1 inhibition resolves inflammation and restores hair growth offering a viable treatment option for alopecia areata” (Skin Health and Disease, 2023)
Read-outs that look alike come from different tables or passages of the source.

How the values were obtained:
[1] = test system: C3H/HeJ mouse model of AA; test: Taqman gene expression in mouse skin; assay type: in vivo; conditions: Mean±SEM
Experimental: RNA was prepared according to a standard phenol‐chloroform total RNA extraction method where skin samples were homogenized in QIAzol® Lysis Reagent (QIAGEN Sciences, Maryland 20847, USA), added chloroform, vortexed and centrifuged for phase separation. The RNA containing phase was ethanol precipitated and purified on an Applied Biosystems 6100 Nucleic Acid Prep Station. RNA integrity was measured on the Fragment Analyzer platform (AATI, IA, USA) using standard sensitivity RNA analysis kit.
cDNA was synthesized from mouse skin RNA using the High Capacity cDNA Reverse Transcription Kit from Life Technologies. Gene expression was performed on the QuantStudio™ 7 Flex Real‐Time PCR System (Applied Biosystems, Foster City, CA, USA) using custom made TaqMan® Array Micro Fluidic Cards. Results were analyzed with the QuantStudio™ 7 Flex Real‐Time PCR System software. Detailed description in Supplementary materials.
RNA extraction: Frozen 20 mg skin biopsies were transferred to 2 mL eppendorf tubes placed on dry ice, added 5 stainless steel beads of 3 mm ø and 750 μL cold QIAzol® Lysis Reagent (QIAGEN Sciences, Maryland 20847, USA). The samples were mounted on a Mixer Mill Tissue Lyser (Retsch GmbH, Haan, Germany) and homogenized for 2 x 5 minutes at 30 Hz, then centrifuged for 1 minute at 6000g, added 150 μL CHCl3, vigorously shaken for 15 seconds and incubated for 3 minutes. After 15 minutes centrifugation at 6000g the aqueous RNA containing phase was transferred to a 96 deep well plate and mixed with an equal volume of 70 % Ethanol. The RNA-Ethanol precipitate was purified and DNase treated on a 6100 Nucleic Acid Prep Station (Applied Biosystems, Foster City, CA, USA). Total RNA was eluted in 100 μL Elution Buffer (Applied Biosystems, Foster City, CA, USA) and the concentrations were measured on the NanoDrop ND-1000 Spectrophotometer (Thermo Fischer Scientific, Wilmington, DE, USA) at 260 nm.
cDNA synthesis: cDNA synthesis was performed using the High Capacity cDNA Reverse Transcription Kit from Life Technologies (Applied Biosystems, Foster City, CA, USA) according to the manufacturer´s instructions. The cDNA samples were diluted with RNase free water to 100 ng/µL, in a later (experiment) to 200 ng/µL.
The gene expression results are shown as log2 Fold Change. With the calibrator group close to zero, up- or down regulation of the target genes are visualized as positive or negative values, making it easier to assess the size of, in particular, the down regulations.

IL‐13, STAT6‐Luc = test: IL-13-induced JAK-STAT6-luciferase assay in U937 monocytes; assay type: cell-based; conditions: Homo sapiens, U-937, interleukin at EC80
JAK2 = JAK2 (Homo sapiens, UniProt O60674); test: JAK2 kinase inhibition, Calliper assay; assay type: biochemical; conditions: physiological ATP concentration of 5 mM
Chain of JAK2 (O60674 whole entry, species assumed): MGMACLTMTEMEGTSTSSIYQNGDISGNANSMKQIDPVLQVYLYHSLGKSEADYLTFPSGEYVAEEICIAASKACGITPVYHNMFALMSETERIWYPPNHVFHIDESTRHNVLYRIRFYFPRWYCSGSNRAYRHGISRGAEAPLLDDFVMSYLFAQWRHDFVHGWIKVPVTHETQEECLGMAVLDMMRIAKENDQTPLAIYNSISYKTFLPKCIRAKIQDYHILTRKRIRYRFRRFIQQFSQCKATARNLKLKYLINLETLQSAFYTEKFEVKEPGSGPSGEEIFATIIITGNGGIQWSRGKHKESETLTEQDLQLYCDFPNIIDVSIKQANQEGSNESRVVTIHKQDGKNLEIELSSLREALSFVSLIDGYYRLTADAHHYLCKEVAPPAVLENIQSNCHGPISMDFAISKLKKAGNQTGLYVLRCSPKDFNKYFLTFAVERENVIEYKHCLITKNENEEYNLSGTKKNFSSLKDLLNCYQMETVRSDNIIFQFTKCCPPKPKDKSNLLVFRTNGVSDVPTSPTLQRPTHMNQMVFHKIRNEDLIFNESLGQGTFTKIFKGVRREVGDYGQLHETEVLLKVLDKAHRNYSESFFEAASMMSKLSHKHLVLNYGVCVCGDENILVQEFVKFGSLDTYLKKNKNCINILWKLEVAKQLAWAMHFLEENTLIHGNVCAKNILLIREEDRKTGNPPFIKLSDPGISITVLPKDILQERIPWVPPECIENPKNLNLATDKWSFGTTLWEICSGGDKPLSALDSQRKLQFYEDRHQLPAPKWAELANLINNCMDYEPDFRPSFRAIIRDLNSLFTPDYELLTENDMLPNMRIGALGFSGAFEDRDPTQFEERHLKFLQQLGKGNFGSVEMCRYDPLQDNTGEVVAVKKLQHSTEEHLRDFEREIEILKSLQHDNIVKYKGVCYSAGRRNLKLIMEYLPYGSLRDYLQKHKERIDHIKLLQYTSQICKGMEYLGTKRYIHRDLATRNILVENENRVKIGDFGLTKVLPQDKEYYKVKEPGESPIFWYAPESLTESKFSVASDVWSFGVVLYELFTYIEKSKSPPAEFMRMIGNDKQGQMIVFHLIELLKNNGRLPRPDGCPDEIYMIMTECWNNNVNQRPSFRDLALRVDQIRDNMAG

[2] = Plasma and skin exposure in treated AA mice; conditions: AA mice
[3] = test system: C3H/HeJ mouse model of AA; test: Circulating cytokines in mouse plasma, Luminex; assay type: in vivo; conditions: at 4 weeks
Experimental: A Luminex assay kit from Merck Millipore (Cat# MTH17MAG‐47K) was used and the analysis carried out according to the supplier protocols.

[4] = C3H/HeJ, mouse, in vivo
[5] = test system: Human Peripheral Blood Mononuclear Cells (PBMCs); test: Cytokine release from anti-CD3-stimulated human PBMCs; assay type: cell-based; conditions: anti-CD3, 40-48h, 4 healthy donors, linear regression
Experimental: Human Peripheral Blood Mononuclear Cells (PBMCs) were isolated by Sepmate technique (Stemcell Technologies) from heparinized venous blood from healthy volunteers. Primary human CD8^+ T‐cells were further isolated using a CD8^+ T cell Isolation Kit according to protocol (Miltenyi Biotec). Experiments were approved by the local ethical committee in Gothenburg (033‐11).
Soluble anti‐CD28 were added to the CD8^+ cultures to facilitate co‐stimulation. After 40–48 h, supernatants were harvested for mediator analysis and the cells were washed and resuspended in RLT buffer (Qiagen) for RNA isolation.
Analysis of human cytokine panels was carried out using a Luminex assay kit from Merck Millipore (Cat# HCYTMAG‐60K‐PX41) and Mesoscale Discovery (MSD) immunoassay kits (Cat# K211AEB‐2 and K15049D) as recommended in the respective supplier protocols.

[6] = topical cream application (local)
[7] = Local JAK1i group, Mean±95% CI, n=6
[8] = Systemic JAK1i group, Mean±95% CI, n=6

Cc1cnc(Nc2cc(N3C[C@@H]4C[C@H]3CN4C)cnc2F)nc1N[C@H](C)[C@H](C)CO [Cmpd B, (2S,3R)-3-{[2-({2-fluoro-5-[(1S,4S)-5-methyl-2,5-diazabicyclo[2.2.1]heptan-2-yl]pyridin-3-yl}amino)-5-methylpyrimidin-4-yl]amino}-2-methylbutan-1-ol]
CD8a expression in skin, fold change (log2) from AA ([1]; Local JAK1i (treated side)): 1.06 ± 0.63 (0.245, n=6) log2 fold change
CXCL9 expression in skin, fold change (log2) from AA ([1]; Local JAK1i (treated side)): 0.60 ± 0.50 (0.69, n=6) log2 fold change
CXCL10 expression in skin, fold change (log2) from AA ([1]; Local JAK1i (treated side)): 0.23 ± 0.49 (0.99, n=6) log2 fold change
CXCL11 expression in skin, fold change (log2) from AA ([1]; Local JAK1i (treated side)): 0.06 ± 0.63 (0.99, n=6) log2 fold change
GZMB expression in skin, fold change (log2) from AA ([1]; Local JAK1i (treated side)): 0.93 ± 0.35 (0.45, n=5) log2 fold change
ICOS expression in skin, fold change (log2) from AA ([1]; Local JAK1i (treated side)): 1.33 ± 0.18 (<0.001, n=4) log2 fold change
Krt32 expression in skin, fold change (log2) from AA ([1]; Local JAK1i (treated side)): -0.81 ± 0.70 (0.49, n=6) log2 fold change
MX1 expression in skin, fold change (log2) from AA ([1]; Local JAK1i (treated side)): 0.03 ± 0.38 (0.99, n=6) log2 fold change
STAT1 expression in skin, fold change (log2) from AA ([1]; Local JAK1i (treated side)): 1.09 ± 0.29 (<0.001, n=6) log2 fold change
CD8a expression in skin, fold change (log2) from AA ([1]; Local JAK1i (untreated side)): 1.02 ± 0.71 (0.80, n=6) log2 fold change
CXCL9 expression in skin, fold change (log2) from AA ([1]; Local JAK1i (untreated side)): 0.82 ± 0.65 (0.41, n=6) log2 fold change
CXCL10 expression in skin, fold change (log2) from AA ([1]; Local JAK1i (untreated side)): -0.03 ± 0.74 (0.99, n=6) log2 fold change
CXCL11 expression in skin, fold change (log2) from AA ([1]; Local JAK1i (untreated side)): 0.08 ± 0.76 (0.99, n=6) log2 fold change
GZMB expression in skin, fold change (log2) from AA ([1]; Local JAK1i (untreated side)): 0.77 ± 0.37 (0.64, n=5) log2 fold change
ICOS expression in skin, fold change (log2) from AA ([1]; Local JAK1i (untreated side)): 1.06 ± 0.29 (0.0018, n=5) log2 fold change
Krt32 expression in skin, fold change (log2) from AA ([1]; Local JAK1i (untreated side)): -0.64 ± 0.71 (0.70, n=6) log2 fold change
MX1 expression in skin, fold change (log2) from AA ([1]; Local JAK1i (untreated side)): 0.02 ± 0.41 (0.99, n=6) log2 fold change
STAT1 expression in skin, fold change (log2) from AA ([1]; Local JAK1i (untreated side)): 1.07 ± 0.29 (<0.001, n=6) log2 fold change
IC50 (IL‐13, STAT6‐Luc): 0.1 µM
IC50 (JAK2): > 30 µM
estimated average free exposure in plasma over IC50 [2, 6]: 0.02 fold IC50
estimated average free exposure in skin over IC50 [2, 6]: 1.9 fold IC50

COCC(C(=O)Nc1cccc2c(-c3nc(Nc4cccc(S(C)(=O)=O)c4F)ncc3F)c[nH]c12)N1CCN(C)CC1 (stereo not shown) [Cmpd C]
IFN-γ in mouse plasma [3, 7]: 42 (±14) pg/mL
IL-1β in mouse plasma [3, 7]: 2.4 (±0.5) pg/mL
IL-2 in mouse plasma [3, 7]: 6.2 (±1.6) pg/mL
IL-10 in mouse plasma [3, 7]: 2.9 (±1.4) pg/mL
IL-13 in mouse plasma [3, 7]: 37 (±2.9) pg/mL
IL-17A in mouse plasma [3, 7]: 15 (±2.4) pg/mL
IL-22 in mouse plasma [3, 7]: 35 (±25) pg/mL
IL-23 in mouse plasma [3, 7]: 148 (±95) pg/mL
IL-33 in mouse plasma [3, 7]: 76 (±58) pg/mL
TNFα in mouse plasma [3, 7]: 7.3 (±0.8) pg/mL
IL-6 in mouse plasma ([3]; Local JAK1i group, only one value within detection range): 2.8 (±NA) pg/mL
IFN-γ in mouse plasma [3, 8]: 49 (±21) pg/mL
IL-2 in mouse plasma [3, 8]: 4.5 (±1.5) pg/mL
IL-6 in mouse plasma [3, 8]: 2.9 (±2.3) pg/mL
IL-10 in mouse plasma [3, 8]: 2.4 (±0.7) pg/mL
IL-13 in mouse plasma [3, 8]: 33 (±13) pg/mL
IL-17A in mouse plasma [3, 8]: 15 (±4.2) pg/mL
IL-22 in mouse plasma [3, 8]: 42 (±31) pg/mL
IL-23 in mouse plasma [3, 8]: 206 (±333) pg/mL
IL-33 in mouse plasma [3, 8]: 32 (±17) pg/mL
TNFα in mouse plasma [3, 8]: 6.3 (±2.0) pg/mL
IL-1β in mouse plasma ([3]; Systemic JAK1i group, only one value within detection range): 2.0 (±NA) pg/mL
estimated average free exposure in plasma over IC50 [4]: 0.02 fold IC50
estimated average free exposure in skin over IC50 [4]: 0.43 fold IC50
estimated average free exposure in plasma over IC50 ([4]; po, 2 weeks): 1.4 fold IC50
estimated average free exposure in skin over IC50 ([4]; po, 2 weeks): 0.5 fold IC50

Cc1cnc(Nc2cccnc2F)nc1-c1c[nH]c2c(NC(=O)[C@@H](C)N3CCN(C)CC3)cccc12 [Cmpd A]
CD8a expression in skin, fold change (log2) from AA ([1]; 8w off Tx): -0.32 ± 0.45 (0.97, n=6) log2 fold change
CXCL9 expression in skin, fold change (log2) from AA ([1]; 8w off Tx): -0.33 ± 0.73 (0.96, n=6) log2 fold change
CXCL10 expression in skin, fold change (log2) from AA ([1]; 8w off Tx): -0.32 ± 0.61 (0.97, n=6) log2 fold change
CXCL11 expression in skin, fold change (log2) from AA ([1]; 8w off Tx): 0.43 ± 0.73 (0.93, n=6) log2 fold change
GZMB expression in skin, fold change (log2) from AA ([1]; 8w off Tx): -0.81 ± 0.73 (0.099, n=3) log2 fold change
ICOS expression in skin, fold change (log2) from AA ([1]; 8w off Tx): -0.05 ± 0.09 (0.34, n=2) log2 fold change
Krt32 expression in skin, fold change (log2) from AA ([1]; 8w off Tx): -1.44 ± 0.98 (0.062, n=6) log2 fold change
MX1 expression in skin, fold change (log2) from AA ([1]; 8w off Tx): -0.37 ± 0.41 (0.67, n=6) log2 fold change
STAT1 expression in skin, fold change (log2) from AA ([1]; 8w off Tx): -0.30 ± 0.28 (0.67, n=6) log2 fold change
CD8a expression in skin, fold change (log2) from AA ([1]; Systemic JAKi (oral, 4 weeks)): -2.56 ± 0.24 (<0.001, n=6) log2 fold change
CXCL9 expression in skin, fold change (log2) from AA ([1]; Systemic JAKi (oral, 4 weeks)): -3.83 ± 0.47 (<0.001, n=6) log2 fold change
CXCL10 expression in skin, fold change (log2) from AA ([1]; Systemic JAKi (oral, 4 weeks)): -3.28 ± 0.42 (<0.001, n=5) log2 fold change
CXCL11 expression in skin, fold change (log2) from AA ([1]; Systemic JAKi (oral, 4 weeks)): -4.32 ± 0.36 (<0.001, n=5) log2 fold change
ICOS expression in skin, fold change (log2) from AA ([1]; Systemic JAKi (oral, 4 weeks)): -1.05 ± 0.12 (0.0083, n=4) log2 fold change
Krt32 expression in skin, fold change (log2) from AA ([1]; Systemic JAKi (oral, 4 weeks)): -3.16 ± 0.13 (<0.001, n=6) log2 fold change
MX1 expression in skin, fold change (log2) from AA ([1]; Systemic JAKi (oral, 4 weeks)): -3.71 ± 0.21 (<0.001, n=6) log2 fold change
STAT1 expression in skin, fold change (log2) from AA ([1]; Systemic JAKi (oral, 4 weeks)): -2.29 ± 0.25 (<0.001, n=6) log2 fold change
IC50 (IL‐13, STAT6‐Luc): 0.12 µM
release of TNFα, IL-1RA, IP-10, IL-17 and MIP-1β from PBMC compared with Ruxo and Tofa [5]: significantly differently released
IC50 (JAK2): 18 µM
estimated average free exposure in plasma over IC50 ([2]; oral daily servings (systemic)): 1.2 fold IC50
estimated average free exposure in skin over IC50 ([2]; oral daily servings (systemic)): 0.1 fold IC50
